By remaining activity is commonly meant the signal under treatment as a percentage of the control signal.

Results on two molecules are retold here after PMC4286194 (Biochemical Journal, 2015).

Holding throughout (type): biochemical
One assay deals with T1, SIK2[T96Q] (Homo sapiens, UniProt Q9H0K1, T96Q).
T1 construct: GST; made in house; host or cells: HEK293 cells
To be noted: gatekeeper threonine mutated to glutamine.

In another assay the target is BTK (Homo sapiens, UniProt Q06187). In words: Kinase profiling.
BTK, sequence (Q06187 whole entry): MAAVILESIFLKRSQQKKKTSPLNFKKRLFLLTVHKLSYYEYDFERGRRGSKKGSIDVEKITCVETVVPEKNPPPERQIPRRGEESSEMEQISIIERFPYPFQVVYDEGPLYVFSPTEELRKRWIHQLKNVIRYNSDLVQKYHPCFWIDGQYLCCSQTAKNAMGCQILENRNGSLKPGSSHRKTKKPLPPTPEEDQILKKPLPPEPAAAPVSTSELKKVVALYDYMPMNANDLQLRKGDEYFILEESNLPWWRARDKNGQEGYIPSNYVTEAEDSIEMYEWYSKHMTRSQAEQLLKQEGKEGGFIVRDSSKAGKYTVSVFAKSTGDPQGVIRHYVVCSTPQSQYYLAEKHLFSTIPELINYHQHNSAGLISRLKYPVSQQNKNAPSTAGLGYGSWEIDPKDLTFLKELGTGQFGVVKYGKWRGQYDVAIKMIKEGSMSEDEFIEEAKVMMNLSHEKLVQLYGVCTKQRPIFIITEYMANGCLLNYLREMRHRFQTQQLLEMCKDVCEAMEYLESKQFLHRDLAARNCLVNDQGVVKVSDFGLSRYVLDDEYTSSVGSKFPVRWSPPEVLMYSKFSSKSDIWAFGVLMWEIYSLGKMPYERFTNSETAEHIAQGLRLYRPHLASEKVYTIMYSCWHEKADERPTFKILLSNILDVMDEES
The target in a further assay is T2, EIF2AK3 (Homo sapiens, UniProt Q9NZJ5).
T2 sequence (Q9NZJ5 30-1116): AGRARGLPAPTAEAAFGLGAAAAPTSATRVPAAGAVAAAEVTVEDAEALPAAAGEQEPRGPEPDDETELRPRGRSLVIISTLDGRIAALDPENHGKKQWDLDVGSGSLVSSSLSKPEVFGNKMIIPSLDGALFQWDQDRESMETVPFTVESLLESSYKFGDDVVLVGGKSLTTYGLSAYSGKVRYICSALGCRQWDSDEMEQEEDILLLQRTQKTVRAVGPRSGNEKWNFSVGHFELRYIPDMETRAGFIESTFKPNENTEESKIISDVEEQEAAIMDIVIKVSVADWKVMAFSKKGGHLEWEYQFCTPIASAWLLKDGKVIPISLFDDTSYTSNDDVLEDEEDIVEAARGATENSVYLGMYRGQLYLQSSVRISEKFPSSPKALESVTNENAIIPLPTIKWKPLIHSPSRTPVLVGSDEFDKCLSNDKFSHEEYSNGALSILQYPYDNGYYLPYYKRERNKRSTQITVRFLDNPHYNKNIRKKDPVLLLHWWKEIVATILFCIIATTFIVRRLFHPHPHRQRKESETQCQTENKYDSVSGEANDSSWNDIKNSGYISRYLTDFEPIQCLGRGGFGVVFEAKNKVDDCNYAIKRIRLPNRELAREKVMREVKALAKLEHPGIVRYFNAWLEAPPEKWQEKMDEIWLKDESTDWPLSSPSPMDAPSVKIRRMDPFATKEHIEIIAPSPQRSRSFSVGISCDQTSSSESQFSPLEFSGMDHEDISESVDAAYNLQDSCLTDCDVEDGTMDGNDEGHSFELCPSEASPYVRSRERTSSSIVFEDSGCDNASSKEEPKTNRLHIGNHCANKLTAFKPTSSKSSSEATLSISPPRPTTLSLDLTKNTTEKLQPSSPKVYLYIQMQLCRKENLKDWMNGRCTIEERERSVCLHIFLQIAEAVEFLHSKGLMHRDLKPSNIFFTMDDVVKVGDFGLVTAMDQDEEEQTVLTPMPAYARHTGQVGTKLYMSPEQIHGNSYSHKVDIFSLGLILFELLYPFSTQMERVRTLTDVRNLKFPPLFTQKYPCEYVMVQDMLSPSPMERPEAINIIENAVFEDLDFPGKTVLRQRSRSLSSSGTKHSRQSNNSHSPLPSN
In words: Kinase profiling.

The next assay deals with HIPK3 (Homo sapiens, UniProt Q9H422). In words: Kinase profiling.
The next assay concerns the target T3, IKK epsilon (Homo sapiens, UniProt Q14164).
T3 sequence (Q14164 1-716): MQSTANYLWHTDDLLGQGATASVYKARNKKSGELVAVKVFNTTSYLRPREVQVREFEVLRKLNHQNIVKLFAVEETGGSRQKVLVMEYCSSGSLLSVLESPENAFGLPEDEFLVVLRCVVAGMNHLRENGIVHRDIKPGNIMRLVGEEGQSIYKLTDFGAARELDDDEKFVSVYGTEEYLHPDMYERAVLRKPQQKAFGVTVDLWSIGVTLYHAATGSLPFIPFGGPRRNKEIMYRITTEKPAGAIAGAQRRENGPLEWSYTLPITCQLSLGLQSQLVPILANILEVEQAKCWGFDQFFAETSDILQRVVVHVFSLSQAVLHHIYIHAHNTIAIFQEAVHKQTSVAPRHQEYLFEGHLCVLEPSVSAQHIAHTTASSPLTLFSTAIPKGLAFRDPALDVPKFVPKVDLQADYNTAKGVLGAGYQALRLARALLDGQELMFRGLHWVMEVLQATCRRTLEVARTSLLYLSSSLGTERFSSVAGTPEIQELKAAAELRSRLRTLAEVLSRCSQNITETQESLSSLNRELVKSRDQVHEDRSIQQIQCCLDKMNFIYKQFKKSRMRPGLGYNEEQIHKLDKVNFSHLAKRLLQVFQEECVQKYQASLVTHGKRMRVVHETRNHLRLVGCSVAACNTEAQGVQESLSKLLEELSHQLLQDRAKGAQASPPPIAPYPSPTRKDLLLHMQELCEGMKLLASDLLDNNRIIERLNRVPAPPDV
The assay is described as follows: Kinase profiling.

The next assay concerns the target MAPKAP-K3 (Homo sapiens, UniProt Q16644). The assay is described as follows: Kinase profiling.
For another assay, the target named is MARK1 (Homo sapiens, UniProt Q9P0L2). The assay is described as follows: Kinase profiling.
MARK1, sequence (Q9P0L2 whole entry): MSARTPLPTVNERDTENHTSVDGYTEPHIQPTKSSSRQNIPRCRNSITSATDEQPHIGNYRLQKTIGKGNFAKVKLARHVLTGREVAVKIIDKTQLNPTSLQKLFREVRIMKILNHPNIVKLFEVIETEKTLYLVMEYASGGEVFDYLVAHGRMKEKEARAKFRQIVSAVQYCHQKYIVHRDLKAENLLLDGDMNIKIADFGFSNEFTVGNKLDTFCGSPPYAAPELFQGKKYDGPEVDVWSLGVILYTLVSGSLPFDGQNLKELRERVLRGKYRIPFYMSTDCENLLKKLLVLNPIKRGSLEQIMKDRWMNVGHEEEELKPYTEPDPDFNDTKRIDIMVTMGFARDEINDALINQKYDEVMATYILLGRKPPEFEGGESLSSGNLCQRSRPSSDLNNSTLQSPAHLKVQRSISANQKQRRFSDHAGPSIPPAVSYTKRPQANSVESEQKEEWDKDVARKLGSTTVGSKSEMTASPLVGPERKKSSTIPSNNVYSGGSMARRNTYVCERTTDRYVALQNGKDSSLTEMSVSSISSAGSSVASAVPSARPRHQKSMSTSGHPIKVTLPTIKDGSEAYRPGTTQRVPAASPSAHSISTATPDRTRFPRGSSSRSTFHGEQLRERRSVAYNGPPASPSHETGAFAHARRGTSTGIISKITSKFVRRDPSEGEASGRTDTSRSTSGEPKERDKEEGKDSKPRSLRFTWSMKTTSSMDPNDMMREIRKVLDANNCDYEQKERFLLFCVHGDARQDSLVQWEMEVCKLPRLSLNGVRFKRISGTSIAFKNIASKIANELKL
Another assay addresses MKK2 (Homo sapiens, UniProt P36507). The assay is described as follows: Kinase profiling.
In another assay the target is MPSK1 (Homo sapiens, UniProt O75716). The assay is described as follows: Kinase profiling.
MPSK1, sequence (O75716 whole entry): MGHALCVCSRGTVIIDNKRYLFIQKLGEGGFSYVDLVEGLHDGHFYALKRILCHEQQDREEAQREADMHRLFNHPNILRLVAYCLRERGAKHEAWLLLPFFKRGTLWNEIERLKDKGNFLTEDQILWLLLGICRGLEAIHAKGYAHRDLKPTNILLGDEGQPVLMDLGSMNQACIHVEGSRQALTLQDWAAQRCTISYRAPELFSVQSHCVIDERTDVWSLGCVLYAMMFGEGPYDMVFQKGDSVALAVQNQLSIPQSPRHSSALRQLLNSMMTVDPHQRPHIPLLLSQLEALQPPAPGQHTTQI
A further assay addresses PIM2 (Homo sapiens, UniProt Q9P1W9). The assay is described as follows: Kinase profiling.
The target in another assay is PKB beta (Homo sapiens, UniProt P31751). The assay is described as follows: Kinase profiling.
PKB beta, sequence (P31751 whole entry): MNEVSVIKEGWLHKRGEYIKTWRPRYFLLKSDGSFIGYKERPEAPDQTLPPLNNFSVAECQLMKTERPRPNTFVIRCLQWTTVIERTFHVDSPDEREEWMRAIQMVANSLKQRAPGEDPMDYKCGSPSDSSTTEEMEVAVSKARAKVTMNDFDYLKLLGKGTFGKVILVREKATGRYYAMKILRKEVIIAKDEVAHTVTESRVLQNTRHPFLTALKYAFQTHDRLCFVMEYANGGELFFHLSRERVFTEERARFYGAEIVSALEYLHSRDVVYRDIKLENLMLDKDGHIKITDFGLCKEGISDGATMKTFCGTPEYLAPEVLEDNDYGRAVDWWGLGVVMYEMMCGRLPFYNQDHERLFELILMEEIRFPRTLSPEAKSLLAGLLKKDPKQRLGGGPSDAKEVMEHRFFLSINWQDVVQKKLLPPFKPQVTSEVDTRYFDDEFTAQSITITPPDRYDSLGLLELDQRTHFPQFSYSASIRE
The target of the next assay is T4, TAK1 (Homo sapiens, UniProt O43318).
T4 sequence (O43318 1-303 limits assumed): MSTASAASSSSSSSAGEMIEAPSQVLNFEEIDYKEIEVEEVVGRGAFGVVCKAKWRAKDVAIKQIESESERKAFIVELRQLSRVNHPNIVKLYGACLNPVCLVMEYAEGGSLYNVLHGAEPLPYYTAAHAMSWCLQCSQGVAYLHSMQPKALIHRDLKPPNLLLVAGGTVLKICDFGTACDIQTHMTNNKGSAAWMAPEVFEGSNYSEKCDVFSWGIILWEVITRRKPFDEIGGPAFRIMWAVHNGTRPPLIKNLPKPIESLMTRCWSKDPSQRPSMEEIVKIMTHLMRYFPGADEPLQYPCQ
The assay is described as follows: Kinase profiling.

For another assay, the target named is TTBK1 (Homo sapiens, UniProt Q5TCY1). In words: Kinase profiling.
TTBK1, sequence (Q5TCY1 whole entry): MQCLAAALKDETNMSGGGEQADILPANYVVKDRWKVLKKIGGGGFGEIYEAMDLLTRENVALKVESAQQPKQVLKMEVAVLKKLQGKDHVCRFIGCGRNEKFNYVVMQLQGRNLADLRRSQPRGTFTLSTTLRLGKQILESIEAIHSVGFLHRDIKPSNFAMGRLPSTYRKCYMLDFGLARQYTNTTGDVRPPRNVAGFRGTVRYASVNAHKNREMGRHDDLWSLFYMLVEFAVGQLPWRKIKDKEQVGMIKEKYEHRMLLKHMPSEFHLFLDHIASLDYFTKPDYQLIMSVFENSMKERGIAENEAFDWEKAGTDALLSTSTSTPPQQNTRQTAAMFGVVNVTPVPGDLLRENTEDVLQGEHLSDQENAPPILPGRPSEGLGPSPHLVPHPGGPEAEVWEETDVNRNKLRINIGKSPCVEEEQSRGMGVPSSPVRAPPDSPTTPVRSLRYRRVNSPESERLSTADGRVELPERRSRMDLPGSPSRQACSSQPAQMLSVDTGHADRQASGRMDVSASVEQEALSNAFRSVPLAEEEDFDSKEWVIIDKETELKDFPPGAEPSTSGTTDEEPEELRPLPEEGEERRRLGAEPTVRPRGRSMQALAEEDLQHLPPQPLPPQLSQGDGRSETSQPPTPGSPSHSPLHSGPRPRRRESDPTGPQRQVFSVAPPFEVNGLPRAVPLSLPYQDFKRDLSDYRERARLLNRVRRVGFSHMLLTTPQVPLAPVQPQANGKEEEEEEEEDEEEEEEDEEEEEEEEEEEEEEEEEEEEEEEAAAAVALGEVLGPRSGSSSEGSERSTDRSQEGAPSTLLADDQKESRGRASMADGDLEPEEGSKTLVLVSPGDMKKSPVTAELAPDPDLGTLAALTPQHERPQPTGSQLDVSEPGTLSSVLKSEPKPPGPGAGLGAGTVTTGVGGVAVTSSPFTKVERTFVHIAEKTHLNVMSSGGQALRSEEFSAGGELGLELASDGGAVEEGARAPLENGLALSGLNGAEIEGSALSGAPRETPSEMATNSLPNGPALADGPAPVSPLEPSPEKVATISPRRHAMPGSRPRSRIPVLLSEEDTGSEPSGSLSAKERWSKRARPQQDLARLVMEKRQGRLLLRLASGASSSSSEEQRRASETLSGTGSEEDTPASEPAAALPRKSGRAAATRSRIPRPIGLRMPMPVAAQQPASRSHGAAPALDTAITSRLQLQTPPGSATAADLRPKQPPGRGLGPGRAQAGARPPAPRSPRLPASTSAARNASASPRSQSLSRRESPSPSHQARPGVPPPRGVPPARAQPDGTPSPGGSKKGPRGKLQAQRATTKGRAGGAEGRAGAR

PIM2, sequence (Q9P1W9 whole entry): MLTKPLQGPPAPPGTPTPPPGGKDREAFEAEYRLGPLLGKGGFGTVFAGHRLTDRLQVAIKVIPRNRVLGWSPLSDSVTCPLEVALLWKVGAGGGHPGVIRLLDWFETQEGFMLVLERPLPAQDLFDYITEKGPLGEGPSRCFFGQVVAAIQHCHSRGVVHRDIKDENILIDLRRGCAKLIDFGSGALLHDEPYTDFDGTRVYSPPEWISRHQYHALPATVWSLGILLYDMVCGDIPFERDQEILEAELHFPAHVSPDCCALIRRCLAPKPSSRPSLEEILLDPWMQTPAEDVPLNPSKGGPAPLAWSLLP
MKK2, sequence (P36507 whole entry): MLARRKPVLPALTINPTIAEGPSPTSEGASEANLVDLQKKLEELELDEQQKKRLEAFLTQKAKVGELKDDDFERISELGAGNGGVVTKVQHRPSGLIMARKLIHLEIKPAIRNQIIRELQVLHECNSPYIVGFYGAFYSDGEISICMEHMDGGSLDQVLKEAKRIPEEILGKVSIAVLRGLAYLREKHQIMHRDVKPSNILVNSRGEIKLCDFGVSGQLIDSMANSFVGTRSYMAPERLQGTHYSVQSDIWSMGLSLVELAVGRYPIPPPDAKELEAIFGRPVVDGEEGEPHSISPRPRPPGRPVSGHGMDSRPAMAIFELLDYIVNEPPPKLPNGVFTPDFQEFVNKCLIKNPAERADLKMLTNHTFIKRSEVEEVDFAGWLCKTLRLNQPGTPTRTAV
MAPKAP-K3, sequence (Q16644 whole entry): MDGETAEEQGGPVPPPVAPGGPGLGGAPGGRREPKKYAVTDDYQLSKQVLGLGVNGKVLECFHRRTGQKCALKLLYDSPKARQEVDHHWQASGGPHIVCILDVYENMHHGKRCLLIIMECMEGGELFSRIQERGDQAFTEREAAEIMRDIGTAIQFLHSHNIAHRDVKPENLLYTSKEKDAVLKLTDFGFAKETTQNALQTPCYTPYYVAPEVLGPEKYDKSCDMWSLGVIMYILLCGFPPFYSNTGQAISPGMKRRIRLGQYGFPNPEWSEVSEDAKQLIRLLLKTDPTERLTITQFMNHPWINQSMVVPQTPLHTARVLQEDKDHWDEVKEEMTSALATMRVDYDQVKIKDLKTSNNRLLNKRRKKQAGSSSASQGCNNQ

With `COc1cc(Nc2c(C#N)cnc3cc(OCCCN4CCN(C)CC4)c(OC)cc23)c(Cl)cc1Cl` [Bosutinib, bosutinib], the “Loss of sensitivity of SIK2[T96Q] versus wild-type” value at SIK2[T96Q] is recorded as 100–1000 fold. The remaining activity at 0.1 µM at BTK (0.1 µM) was found to be 1%; at EIF2AK3 it was 107 ± 5%; at IKK epsilon, 46 ± 7%; at MAPKAP-K3 it was 113 ± 1%; at MARK1, 84 ± 5%; on MKK2 it was 60 ± 3%. The remaining activity at 0.1 µM came out at 117 ± 15% on MPSK1; 99% at PIM2; 102 ± 6% on PKB beta; 41 ± 9% on TAK1; 95 ± 2% on TTBK1. Further, the remaining activity at 1 µM is 1% at BTK (1 µM); 103% at EIF2AK3; 66 ± 5% at HIPK3; 6% at IKK epsilon; 103 ± 8% at MAPKAP-K3; 76 ± 4% at MARK1. Further, the remaining activity at 1 µM was 21 ± 4% at MKK2; 110 ± 11% at MPSK1; 96 ± 8% at PIM2; 90 ± 3% on PKB beta; 5% at TAK1; 114 ± 3% at TTBK1.

As to `Cc1nc(Nc2ncc(C(=O)Nc3c(C)cccc3Cl)s2)cc(N2CCN(CCO)CC2)n1` [Dasatinib], the “Loss of sensitivity of SIK2[T96Q] versus wild-type” value at SIK2[T96Q] is reported as 100–1000 fold. The remaining activity at 0.1 µM on EIF2AK3 came out at 106 ± 6%; on HIPK3 (0.1 µM) it was 102 ± 3%; at IKK epsilon it was 102 ± 5%; on MAPKAP-K3, 117 ± 3%; at MARK1, 115 ± 3%; at MKK2, 113 ± 11%. Further, the remaining activity at 0.1 µM on MPSK1 was found to be 101 ± 5%; at PIM2, 104 ± 3%; on PKB beta it was 94 ± 11%; at TAK1 it was 97 ± 23%; on TTBK1, 112 ± 8%. Further, the remaining activity at 1 µM at EIF2AK3 amounted to 113 ± 2%; on HIPK3, 113 ± 7%; at IKK epsilon, 123 ± 13%; on MAPKAP-K3, 132 ± 1%; on MARK1, 127 ± 3%; at MKK2 it was 91%. Besides, the remaining activity at 1 µM turned out to be 123 ± 1% at MPSK1; 105 ± 1% on PIM2; 94 ± 2% at PKB beta; 99 ± 7% on TAK1; 112 ± 1% at TTBK1.
